Source: the RepoRT retention time repository (doi:10.1007/s11306-011-0298-z)
Counter-ions that a name gives are not always drawn.

experiment: RP, Waters ACQUITY UPLC HSS T3, 100 × 2.1 mm, 1.8 µm, 30 °C, 0.3 mL/min, estimated dead time 0.73 min; A: water + 0.1% formic acid, pH 3; B: methanol + 0.1% formic acid, pH 3; gradient (min/%B) 0/0 6/0 56/100 60/100; conditions: stereoisomer not certain

| Structure (SMILES) | LC retention time |
| --- | --- |
| CCCCCCCCC=CCCCCCCCC(=O)OC(COC(=O)CCCCCCCCCCCCCCC)COP(=O)([O-])OCC[N+](C)(C)C [L-a-Phosphatidylcholine] | 59.9 min |
| O=c1cc(O)c2ccccc2o1 [4-hydroxycoumarin] | 24.2 min |
| COc1ccc(-c2coc3cc(OC)cc(O)c3c2=O)cc1 [genistein-4,7-dimethylether] | 44.8 min |
| O=C(C=Cc1ccc(O)cc1)OC(C(=O)O)C(O)C(=O)O (stereo not drawn) [trans coutaric acid] | 18 min |
| CC12CCC(CC1=O)C2(C)C (stereo not given) [camphor] | 36.5 min |
| O=C(O)c1ccccc1O [salicylic acid] | 26.4 min |
| NCCCCCN [cadaverine] | 1.1 min |
| N[C@@H](Cc1ccccc1)C(=O)O [L-phenylalanine] | 11.5 min |
| CC1OC(OCC2OC(Oc3c(-c4ccc(O)cc4)oc4cc(O)cc(O)c4c3=O)C(O)C(O)C2O)C(O)C(O)C1O (stereo not given) [kaempferol 3-rutinoside] | 31.4 min |
| CCCCCCCCC(=O)O [nonanoic acid] | 43.1 min |
| O=C(O)C(O)C(O)C(O)C(O)CO (stereo not given) [gluconic acid] | 1.4 min |
| O=C(O)C(O)C(O)CO (stereo not given) [threonic acid] | 1.45 min |
| O=CC(O)C(O)C(O)CO (stereo not given) [arabinose] | 1.41 min |
| O=c1cc(-c2ccc(O)c(O)c2)oc2cc(OC3OC(CO)C(O)C(O)C3O)cc(O)c12 (stereo not given) [luteolin 7-glucoside] | 28.1 min |
| COc1cc(-c2[o+]c3cc(O)cc(OC4OC(CO)C(O)C(O)C4O)c3cc2OC2OC(CO)C(O)C(O)C2O)ccc1O (stereo not given) [peonidin 3,5 diglucoside] | 20.2 min |
| O=C(O)[C@@H]1CCCN1 [L-proline] | 1.59 min |
| CC(C)(C)c1cc(O)ccc1O [tert-butylhydroquinone] | 30.5 min |
| COc1cc(-c2[o+]c3cc(O)cc(O)c3cc2OC2OC(CO)C(O)C(O)C2O)ccc1O (stereo not given) [peonidin 3-galactoside] | 24 min |
| OCC1OC(OC2OC(CO)C(O)C(O)C2O)C(O)C(O)C1O [D-(+)-trehalose] | 1.5 min |
| CCCCCCCCCCCCCCCCCC(=O)OC [methyl stearate] | 57.8 min |
| OC1COC(O)C(O)C1O (stereo not given) [xylose] | 1.4 min |
| CC(CCC(=O)O)C1CCC2C3CCC4CC(O)CCC4(C)C3CC(O)C12C (stereo not given) [deoxycholic acid] | 49.6 min |
| C[N+](C)(C)CC(=O)[O-] [betaine] | 1.38 min |

| Structure (SMILES) | LC retention time |
| --- | --- |
| CCCCCCCCCC(=O)O [decanoic acid] | 45.6 min |
| O=c1ccn(C2OC(CO)C(O)C2O)c(=O)[nH]1 (stereo not given) [uridine] | 7 min |
| CCCCCCCCCCCCCCCCCCC(=O)OC [methyl nonadecanoate] | 58.5 min |
| CC1=CCCC(C)(C)C12CCC(C)O2 (racemic) | 48.1 min |
| CC(C)C(=O)OCCOc1ccccc1 [2-phenoxyethyl isobutyrate] | 40.2 min |
| C1CCNCC1 [piperidine hydrochloride] | 2.5 min |
| CCOC(=O)Cc1c[nH]c2ccccc12 [ethyl indole-3-acetate] | 35.5 min |
| Cc1ncc(C[n+]2csc(CCO)c2C)c(N)n1 [thiamine] | 1.6 min |
| O=C(O)CC(=O)O [malonic acid] | 2.11 min |
| C=CC(C)(O)CCC1C(C)(O)CCC2C(C)(C)CCCC21C (stereo not given) [sclareol] | 50.1 min |
| Cc1ncc(COP(=O)(O)O)c(C=O)c1O [pyridoxal 5-phosphate] | 3.99 min |
| CCCCCCCCCCCCCCCC(=O)O [palmitic acid] | 54.4 min |
| Cc1cc(O)c2c(c1)C(=O)c1cc(O)cc(O)c1C2=O [emodin] | 46.4 min |
| C[C@@H](O)[C@H](O)[C@H](O)[C@@H](O)C=O [D-(+)-fucose] | 1.8 min |
| O=CC(O)C(O)CO (stereo not given) [threose] | 1.47 min |
| CC(C)CCN [isopentylamine] | 6.9 min |
| C1CCNC1 [pyrrolidine] | 1.5 min |
| OCc1ccccc1OC1OC(CO)C(O)C(O)C1O (stereo not drawn) [D(-)-Salicin] | 16.1 min |
| O=C(O)c1ccc[n+](C2OC(COP(=O)([O-])O)C(O)C2O)c1 (stereo not given) [nicotinic acid mononucleotide] | 2.1 min |
| CCCCCCCC(=O)OC [methyl caprylate] | 44.2 min |
| COc1ccc2oc(-c3ccccc3)cc(=O)c2c1 [6-methoxyflavone] | 42.9 min |
| Oc1cc(O)c2c(c1)OC(c1ccc(O)c(O)c1)C(O)C2c1c(O)cc(O)c2c1OC(c1ccc(O)c(O)c1)C(O)C2 (stereo not given) [procyanidin B1] | 18.1 min |
| NCCCC(=O)O [gamma-aminobutyric acid] | 2.15 min |

| Structure (SMILES) | LC retention time |
| --- | --- |
| OC1C(O)C(O)C(O)C(O)C1O (stereo not given) [myo-inositol] | 1.22 min |
| CCCCCCC(=O)O [n-heptanoic acid] | 36.1 min |
| NCCCCN [1,4-diaminobutane] | 1.1 min |
| CC(=CCC1=C(C)C(=O)c2ccccc2C1=O)CCCC(C)CCCC(C)CCCC(C)C (stereo not given) [vitamin K1] | 57.7 min |
| O=Cc1cccc(O)c1 [3-hydroxybenzaldehyd] | 20.3 min |
| O=C(O)C[C@H](O)C(=O)O [L-malic acid] | 2 min |
| NCCCN [1,3 diaminopropane] | 1 min |
| NC(CCC(=O)NC(CS)C(=O)O)C(=O)O (stereo not given) [gamma-glutamylcysteine] | 3.27 min |
| CSCC[C@H](N)C(=O)O [L-methionine] | 2.8 min |
| CC(CCC(=O)O)C1CCC2C3C(O)CC4CC(O)CCC4(C)C3CCC12C (stereo not given) [chenodeoxycholic acid] | 49.4 min |
| N[C@@H](Cc1c[nH]c2ccccc12)C(=O)O [L-tryptophan] | 16 min |
| OCC1OC(OC2(CO)OC(CO)C(O)C2O)C(O)C(O)C1O (stereo not given) [sucrose] | 1.9 min |
| O=c1c(OC2OC(CO)C(O)C(O)C2O)c(-c2ccc(O)c(O)c2)oc2cc(O)cc(O)c12 (stereo not given) [quercetin-3-galactoside] | 28.9 min |
| O=C(O)c1cc(O)ccc1O [gentisic acid] | 17 min |
| O=C(O)C1OC(Oc2c(-c3ccc(O)c(O)c3)oc3cc(O)cc(O)c3c2=O)C(O)C(O)C1O (stereo not given) [quercetin 3-glucuronide] | 28.4 min |
| CCCN [propylamine] | 1.5 min |
| OCC1OC(O)C(O)C1O [D-(-)-Ribose] | 1.4 min |
| CC(=O)NC(CS)C(=O)O (stereo not given) [acetylcysteine] | 8 min |
| COc1cc(-c2oc3cc(=O)cc(O)c-3cc2OC2OC(CO)C(O)C(O)C2O)cc(OC)c1O (stereo not given) [malvidin-3-galactoside] | 24.2 min |
| CC1OC(OCC2OC(Oc3cc4c(O)cc(O)cc4[o+]c3-c3cc(O)c(O)c(O)c3)C(O)C(O)C2O)C(O)C(O)C1O (stereo not given) [delphinidin 3 rutinoside] | 21.9 min |
| COc1cc(-c2[o+]c3cc(O)cc(O)c3cc2O)cc(O)c1O [petunidin] | 29.7 min |
| O=C(O)CCCC(=O)O [glutaric acid] | 10.2 min |
| OCC1OC(O)C(O)C(O)C1O (stereo not given) [allose] | 1.35 min |

| Structure (SMILES) | LC retention time |
| --- | --- |
| COc1cc(-c2oc3cc(O)cc(O)c3c(=O)c2OC2OC(CO)C(O)C(O)C2O)ccc1O (stereo not given) [isorhamnetin 3-glucoside] | 31.5 min |
| O=C(O)c1cc(O)c(O)c(O)c1 [gallic acid] | 8.95 min |
| OCC1OC(Oc2ccccc2)C(O)C(O)C1O (stereo not given) | 16.4 min |
| Oc1cc(O)c2c(c1)OC(c1ccc(O)c(O)c1)C(O)C2 (stereo not given) [epicatechin] | 20.5 min |
| COc1cc(/C=C/C(=O)O)cc(OC)c1O [sinapic acid] | 25.9 min |
| CC(CCC(=O)O)C1CCC2C3C(O)CC4CC(O)CCC4(C)C3CC(O)C12C (stereo not given) [cholic acid] | 46.8 min |
| CC(C)=CCCC(C)=CCOC(=O)c1ccccc1 [geranyl benzoate] | 51.3 min |
| N#CC(OC1OC(COC2OC(CO)C(O)C(O)C2O)C(O)C(O)C1O)c1ccccc1 (stereo not given) [amygdalin] | 19.3 min |
| Oc1ccccc1O [pyrocatechol] | 13 min |
| CC(=O)NC1C(O)CC(O)(C(=O)O)OC1C(O)C(O)CO (stereo not given) [N-Acetyl-neuraminic acid] | 1.5 min |
| COC(=O)CCS [methyl-3-mercaptoproprionate] | 33.8 min |
| CCOC(=O)c1cc(O)c(O)c(O)c1 [ethyl gallate] | 23 min |
| O=C(O)c1ccco1 [furan-2-carboxylic acid] | 12.7 min |
| CC(C)=C1CCC(C)CC1=O [(R)-(+)-pulegone] | 38.9 min |
| Oc1ccc(C=C2c3cc(O)cc(O)c3C(c3ccc(O)cc3)C2c2cc(O)cc(O)c2)cc1 (stereo not given) [ampelopsin D + quadrangularin A] | 26.2 min |
| O=c1c(-c2ccc(O)cc2)coc2cc(O)ccc12 [daidzein] | 32.5 min |
| O=C(OC1Cc2c(O)cc(O)cc2OC1c1cc(O)c(O)c(O)c1)c1cc(O)c(O)c(O)c1 (stereo not given) [epigallo-catechin gallate] | 22.3 min |
| Oc1ccc(C2Oc3cc(O)c4c(c3C2c2cc(O)cc(O)c2)C2C(c3ccc(O)cc3)c3c(O)cc5c(c3C2C4c2ccc(O)cc2)C(c2cc(O)cc(O)c2)C(c2ccc(O)cc2)O5)cc1 (stereo not given) [ampelopsin H] | 29.8 min |
| CCCCCCCCCCCCCCCCCC(=O)OCCCC [Butyl stearate] | 59.5 min |
| NCC(=O)O [glycine] | 1.22 min |
| O=c1c(OS(=O)(=O)O)c(-c2ccc(O)c(O)c2)oc2cc(O)cc(O)c12 [quercetin 3-sulfate] | 27.4 min |
